# Reference: patent US8778872B2 (priority 2010, dated 2014)
# Like-named read-outs stand apart in the source and are kept apart here. Where a SMILES comes first, the peptide text is derived from it. Where no end group is shown, it is not given here. Side-chain parts run from the residue outwards. [ ]: non-standard residue; d: D form. Ac6c = NC1(C(=O)O)CCCCC1; Ac3c = NC1(C(=O)O)CC1; Aib = CC(C)(N)C(=O)O; PEG40k = 40 kDa PEG; Sar = CNCC(=O)O
# Experiments:
# [1] = buffer
# Protocol: (§1) The flow rate was 1 mL/min. Solvent A contained 0.1% TFA in distilled water, and solvent B contained 0.1% TFA in 90% CH3CN. A linear gradient was employed (0% to 30% B in 10 minutes). The data were collected and analyzed using Peak Simple Chromatography software.
# (§2) The initial rates of cleavage were used to measure the rate constant for the dissociation of the respective prodrugs. […] The first order dissociation rate constants of the prodrugs were determined by plotting the logarithm of the concentration of the prodrug at various time intervals. The slope of this plot gives the rate constant ‘k’.
# [2] = Dipeptide cleavage half time in PBS on model hexapeptide (HPLC / LC-MS); settings: for half-life: buffer; for Relative peak area(%), HPLC peak a / Relative peak area(%), HPLC peak b: PBS; for Relative peak area(%), HPLC peak a: peak a MW 702; for Relative peak area(%), HPLC peak b: peak b MW 902
# Protocol: as §1, §2
# GLP-1 receptor = molecular target: T1, GLP-1 receptor (Homo sapiens, UniProt P43220); assay: Luciferase-based reporter gene assay for cAMP detection, HEK293 cells co-transfected with GLP-1 receptor (prodrug samples pre-incubated in PBS or plasma); type: cell-based
# T1 construct: expressed in transfected cells; host or cells: HEK293
# T1 sequence (P43220 24-463, species assumed): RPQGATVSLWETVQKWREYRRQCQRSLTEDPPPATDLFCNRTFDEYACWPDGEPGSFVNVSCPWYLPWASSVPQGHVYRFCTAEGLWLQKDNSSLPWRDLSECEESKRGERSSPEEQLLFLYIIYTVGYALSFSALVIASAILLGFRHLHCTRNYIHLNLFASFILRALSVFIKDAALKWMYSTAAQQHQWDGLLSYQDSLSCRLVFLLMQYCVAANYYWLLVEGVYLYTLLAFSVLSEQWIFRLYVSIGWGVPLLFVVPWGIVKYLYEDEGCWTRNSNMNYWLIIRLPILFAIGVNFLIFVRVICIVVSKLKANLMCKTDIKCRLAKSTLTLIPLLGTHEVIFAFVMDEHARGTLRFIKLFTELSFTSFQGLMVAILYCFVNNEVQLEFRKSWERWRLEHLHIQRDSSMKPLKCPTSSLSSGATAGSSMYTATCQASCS
# Protocol: To explore the possible formation of DKP and simultaneous regeneration of the parent drug, 40 k PEG-Aib^−1-P^0,C^24GLP(7-36) was incubated in PBS buffer at 37° C. for approximately 10 days.
molecule,measurement,setting,value
C[C@@H](O)[C@H](NC(=O)CNC(=O)[C@H](CCCNC(=N)N)NC(=O)[C@H](CO)NC(=O)[C@H](Cc1c[nH]cn1)NC(=O)[C@@H](N)Cc1ccc(NC(=O)[C@@H]2CCCN2C(=O)C(C)(C)N)cc1)C(=O)N[C@@H](Cc1ccccc1)C(N)=O [Compounds 15],half-life,[1],1.15 h
CNCC(=O)N1CCC[C@H]1C(=O)Nc1ccc(C[C@H](N)C(=O)N[C@@H](Cc2c[nH]cn2)C(=O)N[C@@H](CO)C(=O)N[C@@H](CCCNC(=N)N)C(=O)NCC(=O)N[C@H](C(=O)N[C@@H](Cc2ccccc2)C(N)=O)[C@@H](C)O)cc1 [Compounds 14],half-life,[2],~1000 h
C[C@@H](O)[C@H](NC(=O)CNC(=O)[C@H](CCCNC(=N)N)NC(=O)[C@H](CO)NC(=O)[C@H](Cc1c[nH]cn1)NC(=O)[C@@H](N)Cc1ccc(NC(=O)[C@@H]2CCCN2C(=O)[C@@H](N)C(C)(C)C)cc1)C(=O)N[C@@H](Cc1ccccc1)C(N)=O [Compounds 8],half-life,[1],200 h
CC(C)C[C@H](N)C(=O)N1CCC[C@H]1C(=O)Nc1ccc(C[C@H](N)C(=O)N[C@@H](Cc2c[nH]cn2)C(=O)N[C@@H](CO)C(=O)N[C@@H](CCCNC(=N)N)C(=O)NCC(=O)N[C@H](C(=O)N[C@@H](Cc2ccccc2)C(N)=O)[C@@H](C)O)cc1 [Compounds 7],half-life,[2],62 h
C[C@@H](O)[C@H](NC(=O)CNC(=O)[C@H](CCCNC(=N)N)NC(=O)[C@H](CO)NC(=O)[C@H](Cc1c[nH]cn1)NC(=O)[C@@H]1CCCN1C(=O)C1(N)CCCCC1)C(=O)N[C@@H](Cc1ccccc1)C(N)=O [Peptide 17] (H-[Ac6c]PHSRGTF-NH2),half-life,[2],5 h
C[C@@H](O)[C@H](NC(=O)CNC(=O)[C@H](CCCNC(=N)N)NC(=O)[C@H](CO)NC(=O)[C@H](Cc1c[nH]cn1)NC(=O)[C@@H](N)Cc1ccc(NC(=O)[C@@H]2CCCN2C(=O)CN)cc1)C(=O)N[C@@H](Cc1ccccc1)C(N)=O [Compounds 5],half-life,[2],72 h
"C[C@@H](O)[C@H](NC(=O)CNC(=O)[C@H](CCCNC(=N)N)NC(=O)[C@H](CO)NC(=O)[C@H](Cc1c[nH]cn1)NC(=O)CN(C)C(=O)[C@@H](N)CCCCN)C(=O)N[C@@H](Cc1ccccc1)C(N)=O [A peptide, lys-sar-HSRGTF-NH2] (H-K[Sar]HSRGTF-NH2; N-terminus assumed)","Relative peak area(%), HPLC peak a",[2]; 5 h,26.5%
same,"Relative peak area(%), HPLC peak b",[2]; 5 h,73.5%
same,"Relative peak area(%), HPLC peak a",[2]; 8 h,28.9%
same,"Relative peak area(%), HPLC peak b",[2]; 8 h,71.1%
same,"Relative peak area(%), HPLC peak a",[2]; 24 h,28.8%
same,"Relative peak area(%), HPLC peak b",[2]; 24 h,71.2%
same,"Relative peak area(%), HPLC peak a",[2]; 31 h,77.7%
same,"Relative peak area(%), HPLC peak b",[2]; 31 h,22.3%
same,"Relative peak area(%), HPLC peak a",[2]; 47 h,90.0%
same,"Relative peak area(%), HPLC peak b",[2]; 47 h,10.0%
C[C@@H](O)[C@H](NC(=O)CNC(=O)[C@H](CCCNC(=N)N)NC(=O)[C@H](CO)NC(=O)[C@H](Cc1c[nH]cn1)NC(=O)[C@@H](N)Cc1ccc(NC(=O)[C@@H]2CCCN2C(=O)[C@@H]2CCCN2)cc1)C(=O)N[C@@H](Cc1ccccc1)C(N)=O [Compounds 10],half-life,[2],97 h
"40 kPEG-Aib^−1-P^0,C^24GLP(7-36): Aib^−1-P^0,C^24GLP(7-36) pegylated by maleimido-functioned 40 k Da PEG on the SH group of 24-Cys ([Aib]PHAEGTFTSDVSSYLEGQAAKEFIC([maleimide-PEG40k])WLVKGR)",EC50%/STD ratio,GLP-1 receptor; prodrug incubated in PBS at 37° C. for 30 h,17.31%
same,EC50%/STD ratio,GLP-1 receptor; prodrug incubated in PBS at 37° C. for 54 h,27.74%
same,EC50%/STD ratio,GLP-1 receptor; prodrug incubated in PBS at 37° C. for 240 h,66.49%
same,EC50%/STD ratio,GLP-1 receptor; prodrug incubated in PBS at 37° C. for […],55.90%
C[C@@H](O)[C@H](NC(=O)CNC(=O)[C@H](CCCNC(=N)N)NC(=O)[C@H](CO)NC(=O)[C@H](Cc1c[nH]cn1)NC(=O)[C@@H](N)Cc1ccc(NC(=O)[C@@H]2CCCN2C(=O)[C@@H](N)Cc2ccccc2)cc1)C(=O)N[C@@H](Cc1ccccc1)C(N)=O [Compounds 1],half-life,[2],58 h
C[C@@H](O)[C@H](NC(=O)CNC(=O)[C@H](CCCNC(=N)N)NC(=O)[C@H](CO)NC(=O)[C@H](Cc1c[nH]cn1)NC(=O)[C@@H](N)Cc1ccc(NC(=O)[C@@H]2CCCN2C(=O)[C@@H](N)CO)cc1)C(=O)N[C@@H](Cc1ccccc1)C(N)=O [Compounds 9],half-life,[2],34 h
C[C@@H](O)[C@H](NC(=O)CNC(=O)[C@H](CCCNC(=N)N)NC(=O)[C@H](CO)NC(=O)[C@H](Cc1c[nH]cn1)NC(=O)[C@@H](N)Cc1ccc(NC(=O)[C@@H]2CCCN2C(=O)[C@H](N)CCCCN)cc1)C(=O)N[C@@H](Cc1ccccc1)C(N)=O [Compounds 12],half-life,[2],11 h
C[C@@H](O)[C@H](NC(=O)CNC(=O)[C@H](CCCNC(=N)N)NC(=O)[C@H](CO)NC(=O)[C@H](Cc1c[nH]cn1)NC(=O)[C@@H](N)Cc1ccc(NC(=O)[C@@H]2CCCN2C(=O)[C@@H](N)CCC(=O)O)cc1)C(=O)N[C@@H](Cc1ccccc1)C(N)=O [Compounds 13],half-life,[2],85 h
C[C@@H](O)[C@H](NC(=O)CNC(=O)[C@H](CCCNC(=N)N)NC(=O)[C@H](CO)NC(=O)[C@H](Cc1c[nH]cn1)NC(=O)[C@@H](N)Cc1ccc(NC(=O)[C@@H]2CCCN2C(=O)C(C)(C)O)cc1)C(=O)N[C@@H](Cc1ccccc1)C(N)=O [Compounds 16],half-life,[1],33 h
C[C@@H](O)[C@H](NC(=O)CNC(=O)[C@H](CCCNC(=N)N)NC(=O)[C@H](CO)NC(=O)[C@H](Cc1c[nH]cn1)NC(=O)[C@@H](N)Cc1ccc(NC(=O)[C@@H]2CCCN2C(=O)[C@H](N)Cc2ccccc2)cc1)C(=O)N[C@@H](Cc1ccccc1)C(N)=O [Compounds 3],half-life,[2],20 h
C[C@@H](O)[C@H](NC(=O)CNC(=O)[C@H](CCCNC(=N)N)NC(=O)[C@H](CO)NC(=O)[C@H](Cc1c[nH]cn1)NC(=O)[C@@H]1CCCN1C(=O)C1(N)CC1)C(=O)N[C@@H](Cc1ccccc1)C(N)=O [Peptide 18] (H-[Ac3c]PHSRGTF-NH2),half-life,[2],10 h
C[C@@H](O)[C@H](NC(=O)CNC(=O)[C@H](CCCNC(=N)N)NC(=O)[C@H](CO)NC(=O)[C@H](Cc1c[nH]cn1)NC(=O)[C@@H](N)Cc1ccc(NC(=O)[C@H]2CCCN2C(=O)[C@H](N)Cc2ccccc2)cc1)C(=O)N[C@@H](Cc1ccccc1)C(N)=O [Compounds 4],half-life,[2],39 h
C[C@@H](O)[C@H](NC(=O)CNC(=O)[C@H](CCCNC(=N)N)NC(=O)[C@H](CO)NC(=O)[C@H](Cc1c[nH]cn1)NC(=O)[C@@H](N)Cc1ccc(NC(=O)[C@@H]2CCCN2C(=O)C2(N)CCCCC2)cc1)C(=O)N[C@@H](Cc1ccccc1)C(N)=O [Compounds 17],half-life,[1],0.1 h
C[C@@H](O)[C@H](NC(=O)CNC(=O)[C@H](CCCNC(=N)N)NC(=O)[C@H](CO)NC(=O)[C@H](Cc1c[nH]cn1)NC(=O)[C@@H](N)Cc1ccc(NC(=O)[C@@H]2CCCN2C(=O)CO)cc1)C(=O)N[C@@H](Cc1ccccc1)C(N)=O [Compounds 6],half-life,[2],603 h
C[C@@H](O)[C@H](NC(=O)CNC(=O)[C@H](CCCNC(=N)N)NC(=O)[C@H](CO)NC(=O)[C@H](Cc1c[nH]cn1)NC(=O)[C@@H](N)Cc1ccc(NC(=O)[C@@H]2CCCN2C(=O)[C@@H](N)CCCCN)cc1)C(=O)N[C@@H](Cc1ccccc1)C(N)=O [Compounds 11],half-life,[2],33 h
